Reference: US11970483B2, “Heterocyclic compound” (Takeda Pharmaceutical Company Limited, priority 2018, dated 2024)

Key:
[1] = biological target: T1, human M1 receptor (hCHRM1) (Homo sapiens, UniProt P11229); assay: Measurement of M1 receptor positive allosteric modulator (M1PAM) activity (IP1 HTRF, in presence of EC20 acetylcholine); assay type: cell-based; settings: CHO-K1 cells stably expressing hCHRM1; acetylcholine at EC20 concentration; IP1 readout
T1 construct: expressed in transfected cells
T1 sequence (P11229 1-460): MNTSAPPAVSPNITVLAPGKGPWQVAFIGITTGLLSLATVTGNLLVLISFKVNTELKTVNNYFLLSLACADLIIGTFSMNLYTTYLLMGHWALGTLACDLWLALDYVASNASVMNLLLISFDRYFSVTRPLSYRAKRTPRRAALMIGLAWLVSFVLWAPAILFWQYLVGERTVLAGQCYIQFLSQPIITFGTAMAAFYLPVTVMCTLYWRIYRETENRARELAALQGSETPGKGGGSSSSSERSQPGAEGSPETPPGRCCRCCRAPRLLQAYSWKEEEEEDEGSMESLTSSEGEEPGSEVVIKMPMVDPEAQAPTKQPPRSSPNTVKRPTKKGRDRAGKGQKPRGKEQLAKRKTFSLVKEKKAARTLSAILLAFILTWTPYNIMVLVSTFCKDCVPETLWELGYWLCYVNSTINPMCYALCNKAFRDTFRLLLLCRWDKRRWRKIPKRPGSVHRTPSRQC
Procedure: Measurement of M1 Receptor Positive Allosteric Modulator (M1PAM) Activity
The activity of a test compound in the presence of acetylcholine at an EC20 concentration affording about 20% action of the maximum activity was measured as PAM activity.
The method therefor is as follows. To a 384-well white plate (Greiner) was added 4 μL of the test compound diluted with IP1 Stimulation buffer (CisBio) containing 0.1% fatty acid-free BSA containing 80 nM acetylcholine. Freeze stock of CHO-K1 cells stably expressing human M1 receptor (hCHRM1) was prepared with IP1 Stimulation buffer (CisBio) containing 0.1% fatty acid-free BSA, 4 μL thereof was added (10,000 cells/well) and the mixture was cultured in a 5% CO2 incubator at 37° C. for 1 hr. 4 μL of a solution (CisBio) containing IP1-d2 and Anti-IP1-cryptate Tb conjugate was added, the mixture was incubated at room temperature for 1 hr, and the time-resolved fluorescence signal was measured on an Envision plate reader (PerkinElmer). The activity (%) of the test compound was calculated by defining the value when acetylcholine was added at the final concentration of 20 μM as 100% and the value when DMSO was added instead of the test compound under acetylcholine-free conditions as 0%, and the EC50 value was calculated as a value of 50% of the concentration dependence curve of the test compound.

[2] = Rat PK test (cassette dosing); assay type: in vivo; settings: male SD rats, plasma; for clearance / MRT: intravenous 0.1 mg/kg, 10 compounds cassette; for clearance: read-out: CL total (total clearance) (converted); for MRT: read-out: MRT iv (mean residence time, intravenous administration); for Tmax: oral administration 1 mg/kg, 5 compounds cassette, read-out: Tmax (time to reach maximum plasma concentration)
Procedure: As the rat, 8-week-old male SD rats (Japan SLC, Inc.) were used. They were fed on a solid commercially available diet (CE-2, CLEA Japan, Inc.) and allowed to freely ingest tap water as the drinking water. An intravenous administration solution for the rats was prepared by weighing a test compound, dissolving same in dimethylacetamide (DMA) (Wako Pure Chemical Industries, Ltd.), adding the same volume of 1,3-butanediol (Wako Pure Chemical Industries, Ltd.) and mixing by stirring to give a DMA:1,3-butanediol (1:1, v/v) solution. An oral administration solution was prepared by weighing a test compound, pulverizing same in an agate mortar, and gradually adding 0.5 w/v % aqueous methylcellulose solution to give a suspension. For intravenous administration, the solution was administered into femoral vein of the rats at 0.1 mg/0.5 mL/kg (salt converted to free form). For oral administration, the suspension was administered to the rats at 1 mg/5 mL/kg (salt converted to free form). The cassette dosing method was used for the both administration routes, and the test compound was administered in the following manner.
Compound of Example 1 (intravenous: 10 compounds cassette administration, oral: 5 compounds cassette administration)
Compound of Example 27 (intravenous: 10 compounds cassette administration, oral: 5 compounds cassette administration)
Compound of Example 28 (intravenous: 10 compounds cassette administration, oral: 5 compounds cassette administration)
Compound of Example 29 (intravenous: 10 compounds cassette administration, oral: 5 compounds cassette administration)
In the case of intravenous administration, blood samples were collected from the tail vein at 5, 10, 15, 30 min, 1, 2, 4, 8 hr after administration, an anticoagulation treatment with heparin sodium (Shimizu Pharmaceutical Co., Ltd.) was performed, and plasma was collected after centrifugation and subjected to the measurement of drug concentration. In the case of oral administration, blood samples were collected from the tail vein at 15, 30 min, 1, 2, 4, 8 hr after administration, an anticoagulation treatment with heparin sodium was performed, and plasma was collected after centrifugation and subjected to the measurement of drug concentration.
All drug concentrations were measured by LC-MS/MS analysis. For a pharmacokinetics test, the plasma (50 μL) was placed in a tube, acetonitrile (150 μL) containing internal standard solution was added and they were mixed on a vortex mixer. Thereafter, the mixture was centrifuged (5000 rpm, 5 min, 4° C.). The supernatant (60 μL) after centrifugation was added to 10 mmol/L ammonium formate (160 μL) added earlier and mixed therewith. This sample was injected to LC/MS/MS. The HPLC system used was Shimadzu LC-20A (Shimadzu Corporation), the column used was Unison UK-C18 HT (3.0 μm, 2.0×20 mm, Imtakt) at 50° C., and 10 mmol/L ammonium formate, 0.2% formic acid as mobile phase A and acetonitrile, 0.2% formic acid as mobile phase B were fed each at a flow rate of 1.2 mL/min under gradient conditions of (B concentration: 0 min→0.1 min, 5%, 0.1→0.75 min, 5-99%, 0.75→1.15 min, 99%, 1.15→1.16 min, 5%, 1.16→1.5 min, 5%). MS/MS used was AB Sciex TQ5500-MPX (Applied Biosystems).
Tmax: time to reach maximum plasma concentration
iv: intravenous administration
CL total: total clearance

Male ICR mice = assay: Mouse defecation experiment; assay type: in vivo; settings: oral, mean±standard error
Procedure: Mouse Defecation Experiment
Male ICR mice (6-7 weeks old) were used after an acclimation period for about 1 week. A test drug (1 mg/kg or 3 mg/kg) was suspended in 0.5% methylcellulose solution and orally administered at a volume of 10 mL/kg, and the number of feces 2 hr later was counted. Only 0.5% methylcellulose was administered to a solvent administration group.

| SMILES | EC50 [1] [nM] | clearance [2] [mL/min/kg] | MRT [2] [min] | Tmax [2] [min] | number of feces 2 hr later (Male ICR mice; 1 mg/kg) | number of feces 2 hr later (Male ICR mice; 3 mg/kg) |
| --- | --- | --- | --- | --- | --- | --- |
| Cc1c(Cc2ccc(-c3cn(C)nn3)cc2)cc(C(=O)N[C@H]2CCOC[C@@H]2O)c2c1CCO2 [Example 1, 1,5-anhydro-2,3-dideoxy-3-[(4-methyl-5-{[4-(1-methyl-1H-1,2,3-triazol-4-yl)phenyl]methyl}-2,3-dihydro-1-benzofuran-7-carbonyl)amino]-L-threo-pentitol] | 7.9 | 3.08 | 108 | 60 | 8.8 ± 2.1 |  |
| COCCNC(=O)c1ccc(Cc2cc(C(=O)N[C@H]3CCOC[C@@H]3O)c3c(c2C)CCO3)cc1F [Example 27, 1,5-anhydro-2,3-dideoxy-3-{[5-({3-fluoro-4-[(2-methoxyethyl)carbamoyl]phenyl}methyl)-4-methyl-2,3-dihydro-1-benzofuran-7-carbonyl]amino}-L-threo-pentitol] | 14 | 19.6 | 42 | 60 | 7.4 ± 0.9 | 6.2 ± 1.0 |
| Cc1c(Cc2ccc(C(=O)NCC(=O)N(C)C)c(F)c2)cc(C(=O)N[C@H]2CCOC[C@@H]2O)c2c1CCO2 [Example 28, 1,5-anhydro-2,3-dideoxy-3-({5-[(4-{[2-(dimethylamino)-2-oxoethyl]carbamoyl}-3-fluorophenyl)methyl]-4-methyl-2,3-dihydro-1-benzofuran-7-carbonyl}amino)-L-threo-pentitol] | 8.6 | 18.9 | 36 | 48 | 7.2 ± 1.9 | 6.2 ± 1.3 |
| Cc1c(Cc2ccc(C(=O)NC[C@H]3CCCO3)c(F)c2)cc(C(=O)N[C@H]2CCOC[C@@H]2O)c2c1CCO2 [Example 29, 1,5-anhydro-2,3-dideoxy-3-[(5-{[3-fluoro-4-({[(2R)-oxolan-2-yl]methyl}carbamoyl)phenyl]methyl}-4-methyl-2,3-dihydro-1-benzofuran-7-carbonyl)amino]-L-threo-pentitol] | 11 | 27.5 | 36 | 30 |  |  |
